# Results reported in ChEMBL document CHEMBL1201862, “PubChem BioAssay data set” (2004).
# Activity calls are given as the source filed them. Cut-off read from the data, not from the text of the source, for most assays here: actives have a measured EC50 and inactives only a lower limit.
# How the values were obtained:
# [1] = NIH-3T3 fibroblast cytotoxicity, dose response, cytotoxicity control, cell-based, fluorescence, Alamar Blue, secondary assay (AID 2327); type: functional;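 note: NIH-3T3 mouse fibroblasts cultured with fluconazole at 8 µg/mL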
# [2] = C. albicans growth with fluconazole, confirmation, fluorescence, retest (AID 2467); type: functional, cell-based
# [3] = inhibitors of intracellular T. cruzi replication, confirmation, NIH3T3 host cells, beta-gal luminescence (AID 2044); type: functional, cell-based;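 note: intracellular parasites grown in NIH/3T3 mouse fibroblasts as host cells; luminescent beta-galactosidase reporter signal from transgenic T. cruzi replicating inside host cells; inhibitors lower the luminescence signal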
# [4] = cytotoxicity toward NIH3T3 fibroblasts, dose response, counter-screen, cell-based, ATP luminescence, mouse fibroblasts (AID 2010); type: functional;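 note: cells exposed to compound for about 90 hours before reading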
# [5] = biological target: T1, Corticotropin-releasing factor receptor 2/Corticotropin-releasing factor-binding protein (Homo sapiens, UniProt P24387+Q13324); test: Dose Response confirmation of uHTS hits for small molecule antagonists of the CRF-binding protein and CRF-R2 receptor complex.; type: functional; details: read-out: IC50_Mean
# T1 sequence (Q13324 whole entry): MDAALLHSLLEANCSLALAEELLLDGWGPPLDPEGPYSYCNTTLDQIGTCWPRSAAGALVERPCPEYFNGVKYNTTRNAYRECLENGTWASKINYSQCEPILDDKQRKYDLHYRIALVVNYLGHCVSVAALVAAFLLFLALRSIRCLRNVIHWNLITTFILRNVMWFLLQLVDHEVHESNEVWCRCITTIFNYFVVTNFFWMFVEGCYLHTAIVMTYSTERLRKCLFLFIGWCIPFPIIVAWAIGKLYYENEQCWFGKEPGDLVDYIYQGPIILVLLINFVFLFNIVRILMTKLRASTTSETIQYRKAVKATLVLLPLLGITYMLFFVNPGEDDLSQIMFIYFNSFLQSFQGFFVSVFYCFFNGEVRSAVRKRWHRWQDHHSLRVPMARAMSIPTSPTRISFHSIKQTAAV
# T1 sequence (P24387 whole entry): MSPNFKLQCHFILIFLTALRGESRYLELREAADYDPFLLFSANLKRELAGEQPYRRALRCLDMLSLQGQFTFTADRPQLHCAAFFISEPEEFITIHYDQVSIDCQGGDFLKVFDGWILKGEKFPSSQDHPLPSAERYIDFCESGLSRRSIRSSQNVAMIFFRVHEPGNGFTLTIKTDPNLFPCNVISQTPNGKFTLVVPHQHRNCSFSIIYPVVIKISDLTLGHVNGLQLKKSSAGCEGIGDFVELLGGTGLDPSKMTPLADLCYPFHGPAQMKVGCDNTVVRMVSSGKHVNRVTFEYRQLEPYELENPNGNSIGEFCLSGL
# [6] = biological target: T1, Corticotropin-releasing factor receptor 2/Corticotropin-releasing factor-binding protein; test: activators of CRF receptor 2 with binding protein – uHTS hits, confirmation (AID 602473); type: functional; details: read-out: EC50_Mean
# [7] = test system: Streptococcus sp. 'group A'; test: growth inhibition of control SK(-) GAS strain, dose response, counter-screen for streptokinase expression inhibitor project, luminescence, kanamycin, BacTiterGlo, confirmation (AID 1900); type: functional, organism-based
# [8] = test system: Streptococcus; test: Group A Streptococcus viability loss, dose response, counter-screen for streptokinase expression inhibitor project, luminescence, BacTiterGlo (AID 1915); type: functional, organism-based;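 note: potency for reduction of bacterial viability or growth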
# [9] = test system: INS1; test: beta cell apoptosis inhibitors, cytokine rescue, dose response, luminescence, retest (AID 449756); type: functional, cell-based; details: Rattus norvegicus;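 note: cell death triggered by IL-1 beta plus TNF-alpha plus IFN-gamma mixture; protective hits raise ATP signal compared with cytokine alone wells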
# [10] = inhibitors of firefly luciferase expression or activity, dose response, H4 neuroglioma cells, luminescence (AID 1990); type: functional, cell-based
# [11] = Luminescence Cell-Based Dose Response HTS to Identify Inhibitors of 5'UTR Stem-Loop Driven Prion Protein mRNA Translation in H4 Neuroglioblastoma Cells. [Related pubchem assays: 1827 (Project Summary), 1813 (Primary HTS)]; type: functional
# [12] = inhibitors of SNCA 5'UTR-driven reporter translation, confirmation, H4 neuroglioma cells, luminescence (AID 1988); type: functional, cell-based
# [13] = Luminescence Cell-Based Dose Response HTS to Identify Activators of Luciferase Translation or Activity in H4 […] Cells. [Related pubchem assays: 1829 (Project Summary), 1814 (Primary HTS)]; type: functional
# [14] = test system: H4; test: Luminescence Cell-Based Dose Response HTS to Identify Activators of 5'UTR Stem-Loop Driven Prion Protein mRNA Translation in H4 Neuroglioblastoma Cells. [Related pubchem assays: 1829 (Project Summary), 1814 (Primary HTS)]; type: functional; details: Homo sapiens
# [15] = biological target: T2, Rac GTPase-activating protein 1 (Homo sapiens, UniProt Q9H0H5); test: MgcRacGAP GTPase-activating activity inhibitors, confirmation, biochemical, ADP Hunter fluorescence, primary and confirmatory (AID 624330); type: functional
# T2 sequence (Q9H0H5 whole entry): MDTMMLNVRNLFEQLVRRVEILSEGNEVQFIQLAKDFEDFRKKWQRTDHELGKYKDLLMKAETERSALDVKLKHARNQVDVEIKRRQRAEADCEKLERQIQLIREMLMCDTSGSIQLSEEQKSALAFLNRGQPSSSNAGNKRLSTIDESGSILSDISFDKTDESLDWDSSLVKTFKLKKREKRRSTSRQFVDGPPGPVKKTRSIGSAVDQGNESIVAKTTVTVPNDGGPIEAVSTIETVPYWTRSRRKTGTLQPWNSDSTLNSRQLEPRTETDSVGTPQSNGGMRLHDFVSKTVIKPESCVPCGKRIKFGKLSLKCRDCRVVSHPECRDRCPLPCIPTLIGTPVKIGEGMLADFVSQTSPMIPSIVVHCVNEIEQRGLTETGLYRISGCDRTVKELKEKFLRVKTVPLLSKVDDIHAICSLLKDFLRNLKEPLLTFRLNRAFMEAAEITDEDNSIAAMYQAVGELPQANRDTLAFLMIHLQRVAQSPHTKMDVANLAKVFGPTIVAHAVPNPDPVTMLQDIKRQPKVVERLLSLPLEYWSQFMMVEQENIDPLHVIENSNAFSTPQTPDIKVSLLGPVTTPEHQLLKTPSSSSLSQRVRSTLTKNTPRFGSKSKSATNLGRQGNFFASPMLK
# [16] = HEp-2 cell cytotoxicity, dose response, cytotoxicity control for RSV inhibitor project, HTS (AID 2410); type: functional; details: human respiratory syncytial virus
# [17] = biological target: Cytochrome P450 2D6 (Homo sapiens, UniProt P10635);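 note: CYP2D6 member of a cytochrome P450 panel assay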
# Cytochrome P450 2D6, sequence (P10635 whole entry): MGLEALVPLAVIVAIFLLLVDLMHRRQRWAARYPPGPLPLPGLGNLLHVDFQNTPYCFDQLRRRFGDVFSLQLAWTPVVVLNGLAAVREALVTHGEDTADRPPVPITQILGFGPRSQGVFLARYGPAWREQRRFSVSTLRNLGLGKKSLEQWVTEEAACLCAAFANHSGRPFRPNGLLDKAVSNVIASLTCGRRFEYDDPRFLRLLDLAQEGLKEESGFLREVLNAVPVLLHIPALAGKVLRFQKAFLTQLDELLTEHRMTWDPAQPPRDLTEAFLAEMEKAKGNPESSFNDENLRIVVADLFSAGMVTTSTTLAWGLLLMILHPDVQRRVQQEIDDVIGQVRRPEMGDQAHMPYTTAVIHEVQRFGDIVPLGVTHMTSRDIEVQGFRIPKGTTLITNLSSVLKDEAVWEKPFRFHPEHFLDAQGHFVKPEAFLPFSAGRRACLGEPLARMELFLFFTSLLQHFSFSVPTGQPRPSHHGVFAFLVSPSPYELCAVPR
# [18] = biological target: T3, Cytochrome P450 1A2 (Homo sapiens, UniProt P05177);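 note: PubChem cytochrome P450 panel assay, CYP1A2 panel member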
# T3 sequence (P05177 whole entry): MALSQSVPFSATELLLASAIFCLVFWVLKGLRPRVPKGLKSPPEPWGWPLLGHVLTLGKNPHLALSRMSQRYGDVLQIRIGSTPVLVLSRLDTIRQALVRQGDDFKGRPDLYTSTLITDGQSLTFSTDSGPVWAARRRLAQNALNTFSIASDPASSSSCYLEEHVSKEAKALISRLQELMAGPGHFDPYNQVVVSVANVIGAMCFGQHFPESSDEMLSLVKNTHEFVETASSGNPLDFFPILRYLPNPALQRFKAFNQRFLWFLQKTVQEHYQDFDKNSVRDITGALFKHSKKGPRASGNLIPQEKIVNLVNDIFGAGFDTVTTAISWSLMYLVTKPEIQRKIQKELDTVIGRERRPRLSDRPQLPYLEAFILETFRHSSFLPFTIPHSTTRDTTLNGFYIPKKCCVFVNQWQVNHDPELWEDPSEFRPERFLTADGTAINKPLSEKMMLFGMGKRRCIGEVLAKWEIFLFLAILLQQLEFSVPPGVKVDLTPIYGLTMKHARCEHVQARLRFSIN
# [19] = biological target: Cytochrome P450 3A4 (Homo sapiens, UniProt P08684);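 note: CYP3A4 tested as one member of a cytochrome P450 panel screen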
# Cytochrome P450 3A4, sequence (P08684 whole entry): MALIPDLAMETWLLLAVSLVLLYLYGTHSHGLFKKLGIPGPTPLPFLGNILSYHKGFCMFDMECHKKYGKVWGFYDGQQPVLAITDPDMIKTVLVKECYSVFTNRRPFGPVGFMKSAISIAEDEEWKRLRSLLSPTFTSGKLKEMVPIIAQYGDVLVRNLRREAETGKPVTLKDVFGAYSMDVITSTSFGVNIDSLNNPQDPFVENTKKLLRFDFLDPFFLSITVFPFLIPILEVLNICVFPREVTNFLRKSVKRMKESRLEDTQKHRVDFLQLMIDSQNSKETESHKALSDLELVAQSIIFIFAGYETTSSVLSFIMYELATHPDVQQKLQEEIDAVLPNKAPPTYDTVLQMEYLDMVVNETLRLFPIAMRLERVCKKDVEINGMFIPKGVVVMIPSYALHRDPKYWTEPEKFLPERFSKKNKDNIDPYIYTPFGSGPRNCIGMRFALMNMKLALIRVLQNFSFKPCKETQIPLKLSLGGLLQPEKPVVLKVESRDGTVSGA
smiles,measurement,setting,value
CCN(c1ccccc1)S(=O)(=O)c1ccc(C(=O)Nc2nnc(C3CC3)o2)cc1,EC50,[1],> 160 µM (inactive)
same,EC50,[2],2.19 µM (active)
same,EC50,[3],2.16 µM (active)
same,EC50,[4],3.71 µM (active)
Nc1c2c(nc3sc4c(c13)CCCCC4)CCCCC2,EC50,[1],> 160 µM (inconclusive)
same,EC50,[2],3.83 µM (active)
Cc1ccc(-n2nc(C)c(Sc3ccccc3[N+](=O)[O-])c2N)cc1,IC50,[5],> 47.1 µM (inactive)
same,EC50,[6],> 53 µM (inactive)
COc1ccc(C(=O)NC(=S)NNC(=O)c2ccccc2O)cc1,EC50,[7],2.7 µM (active)
same,EC50,[8],8.79 µM (active)
same,EC50,[6],> 53 µM (inactive)
O=C1NCCCCC1NS(=O)(=O)c1cccc2ccccc12 (stereo unspecified),IC50,[5],> 47.1 µM (inactive)
same,EC50,[6],> 53 µM (inactive)
O=C1C(C2=NC(c3ccccn3)C3C(=O)N(c4ccc(OC(F)(F)F)cc4)C(=O)C23)=C(O)c2ccccc21 (stereo unspecified),AC50,[9],5.71 µM (active)
CCc1ccc2[nH]c(C(=O)Nc3ccc4c(c3)OCO4)cc2c1,IC50,[5],> 47.1 µM (inactive)
same,EC50,[6],> 53 µM (inactive)
O=C(Nc1nn[nH]n1)c1cccc([N+](=O)[O-])c1,EC50,[10],> 120 µM (not active)
same,EC50,[11],> 120 µM (not active)
same,EC50,[12],> 120 µM (not active)
CC(=O)Cc1nsc(Nc2ccc(Cl)cc2)n1,EC50,[1],> 160 µM (inactive)
same,EC50,[2],> 38 µM (not active)
Cc1ccc(/C=N/Nc2ccnc3cc(Cl)ccc23)c(C)c1,EC50,[3],0.672 µM (active)
same,EC50,[4],> 60 µM (not active)
same,AC50,[9],6.15 µM (active)
O=S(=O)(c1ccc(Cl)s1)N1CCCc2cccc(O)c21,EC50,[1],21.4 µM (active)
same,EC50,[13],6.05 µM (active)
same,EC50,[14],45.3 µM (active)
same,EC50,[2],> 38 µM (not active)
CCc1cccc(NC(=S)N(CCCN2CCOCC2)C(C)c2cc3cccc(OC)c3o2)c1 (stereo unspecified),IC50,[5],> 47.1 µM (inactive)
same,EC50,[6],> 53 µM (inactive)
COc1ccc2c(c1)c(/C=C/c1cc[n+](C)cc1)cn2C,EC50,[1],> 160 µM (inactive)
same,EC50,[2],2.23 µM (active)
Sc1nnc(-c2cccs2)n1/N=C/c1cccs1,EC50,[1],> 150 µM (inactive)
same,EC50,[2],1.93 µM (active)
same,IC50,[15],126 µM (active)
CNS(=O)(=O)c1cccc(C(=O)NCC(c2ccco2)N(C)C)c1 (stereo unspecified),IC50,[5],> 47.1 µM (inactive)
same,EC50,[6],> 53 µM (inactive)
O=C(COc1ccc(Cl)cc1Cl)NNC(=S)NC(=O)c1ccco1,EC50,[7],0.309 µM (active)
same,EC50,[8],1.57 µM (active)
O=C(NCC1CCCO1)C1CCCN1C(=O)NC1CCCCC1 (stereo unspecified),IC50,[5],> 47.1 µM (inactive)
same,EC50,[6],> 53 µM (inactive)
COc1ccc(C(=O)N(c2ccccc2)C2C=CS(=O)(=O)C2)cc1 (stereo unspecified),IC50,[5],> 47.1 µM (inactive)
same,EC50,[6],> 53 µM (inactive)
CCCCn1c2c(c(=O)n(C)c1=O)C(c1ccc(OC)cc1)N1CCCCCC1=N2 (stereo unspecified),EC50,[10],39.2 µM (active)
same,EC50,[11],> 120 µM (not active)
same,EC50,[12],> 120 µM (not active)
Cc1cc(C(=O)Nc2ccc(CC(=O)O)cc2)c(C)o1,EC50,[10],12.9 µM (active)
same,EC50,[11],23.1 µM (active)
same,EC50,[12],18.1 µM (active)
O=Nc1c(O)n(Cc2cccc(Cl)c2)c2ccccc12,EC50,[1],> 150 µM (inactive)
same,CC50,[16],11.7 µM (active)
same,EC50,[2],2.99 µM (active)
same,AC50,[17],22.4 µM (inconclusive)
same,AC50,[18],25.1 µM (inconclusive)
same,AC50,[19],39.8 µM (inconclusive)
O=C(Cc1ccc(O)cc1)N/N=C/c1cccnc1,EC50,[1],> 160 µM (inactive)
same,EC50,[2],> 38 µM (not active)
O=[N+]([O-])c1ccc(N2CCOCC2)cc1NCc1ccccc1,IC50,[5],> 47.1 µM (inactive)
same,EC50,[6],> 53 µM (inactive)
CCCC(=O)c1c(NC(C)C)cc(C)oc1=O,EC50,[10],> 120 µM (not active)
same,EC50,[11],> 120 µM (not active)
same,EC50,[12],> 120 µM (not active)
COc1cc(C(=O)NC2CC(C)(C)Cc3c2cnn3-c2ccccc2)cc(OC)c1OC (stereo unspecified),IC50,[5],> 47.1 µM (inactive)
same,EC50,[6],> 53 µM (inactive)
COc1ccc(CCC(=O)N2CC(C)OC(C)C2)cc1 (stereo unspecified),EC50,[1],> 150 µM (inactive)
same,EC50,[2],> 38 µM (not active)
Cc1ccc2c(c1)cc1c(=O)n(CC(=O)NCc3ccccn3)nc(C)n12,EC50,[10],> 120 µM (not active)
same,EC50,[11],> 120 µM (not active)
same,EC50,[12],> 120 µM (not active)
Cc1cc(=O)n2c(c1C#N)SC1CCCCC12O (stereo unspecified),EC50,[10],> 120 µM (not active)
same,EC50,[11],> 120 µM (not active)
same,EC50,[12],> 120 µM (not active)
CCOc1ccccc1-n1c(C)nc2cc(C(=O)O)ccc21,IC50,[5],> 47.1 µM (inactive)
same,EC50,[6],> 53 µM (inactive)
COCC(C)n1c(SCc2cc(=O)n3cc(C)ccc3n2)nc2ccccc2c1=O (stereo unspecified),CC50,[16],49.5 µM (active)
same,EC50,[10],> 120 µM (not active)
same,EC50,[11],12.6 µM (active)
same,EC50,[12],> 120 µM (not active)
O=C(NCCS(=O)(=O)c1ccc(Br)cc1)c1ccccc1Cl,IC50,[5],> 47.1 µM (inactive)
same,EC50,[6],> 53 µM (inactive)
Cc1cc(C)nc(NS(=O)(=O)c2ccc(NC(=O)COc3ccccc3)cc2)n1,EC50,[1],> 150 µM (inactive)
same,EC50,[2],> 38 µM (not active)
COc1ccccc1N1CC(C)(C)C(=O)N(C(=O)c2ccc(Cl)cc2)C1=S,AC50,[9],> 260 µM (inactive)
COc1ccc(/C=C/C(=O)Nc2ccc(-n3nncc3-c3ccc(OC)c(OC)c3)cc2)cc1OC,EC50,[10],23.4 µM (active)
same,EC50,[11],> 120 µM (not active)
same,EC50,[12],16.5 µM (active)
